We go through 23 compounds from the SangsterLogP compilation.

SMILES strings stand for the structures.

A short description of this data set: method code SF, from PMID: 17665861. As to conditions: pH 7.4.

The logD is lipophilicity at a set pH, counting ionised and neutral species. Low values mean lower lipophilicity, high ones higher lipophilicity. `O=C1Nc2ccccc2C12SC1C(=NNC1c1ccc([N+](=O)[O-])cc1)N2c1ccc(Br)cc1` (stereo not drawn) displayed a logD of 1.35.
In turn, `O=C1Nc2ccccc2C12SC1C(=NNC1c1ccccc1O)N2c1ccccc1` (stereo not drawn) yielded a logD of 1.25.
On to `O=C1Nc2ccccc2C12SC1C(=NNC1c1ccccc1Cl)N2c1ccc(Br)cc1` (stereo not drawn), for which the logD was 1.45.
The figure for `O=C1Nc2ccccc2C12SC1C(=NNC1c1ccccc1Cl)N2c1ccc(Cl)cc1` (stereo not drawn) is 1.31.
`COc1ccccc1N1C2=NNC(c3ccccc3[N+](=O)[O-])C2SC12C(=O)Nc1ccccc12` (stereo not drawn) came in with a logD of 1.11.
The figure for `O=C1Nc2ccccc2C12SC1C(=NNC1c1ccccc1)N2c1ccccc1[N+](=O)[O-]` (stereo not drawn) is 1.14.
Next, `COc1ccc(C2NN=C3C2SC2(C(=O)Nc4ccccc42)N3c2ccc(Cl)cc2)cc1` (stereo not drawn): 1.41.
Compound `COc1ccccc1N1C2=NNC(c3ccc(Cl)cc3)C2SC12C(=O)Nc1ccccc12` (stereo not drawn) gave a logD of 1.26.
In turn, `COc1ccccc1N1C2=NNC(c3ccccc3)C2SC12C(=O)Nc1ccccc12` (stereo not drawn) yielded a logD of 1.19.
`O=C1Nc2ccccc2C12SC1C(=NNC1c1ccccc1Cl)N2c1cccc2ccccc12` (stereo not drawn) showed a logD of 1.21.
Next, `O=C1Nc2ccccc2C12SC1C(=NNC1c1ccccc1)N2c1ccc(Cl)cc1` (stereo not drawn): 1.1.
Next, `O=C1Nc2ccccc2C12SC1C(=NNC1c1ccccc1O)N2c1ccc(Br)cc1` (stereo not drawn): 1.38.
Next, `O=C1Nc2ccccc2C12SC1C(=NNC1c1ccc([N+](=O)[O-])cc1)N2c1ccccc1[N+](=O)[O-]` (stereo not drawn): 1.45; `COc1ccccc1N1C2=NNC(c3ccccc3O)C2SC12C(=O)Nc1ccccc12` (stereo not drawn): 1.14; `O=C1Nc2ccccc2C12SC1C(=NNC1c1ccccc1Cl)N2c1ccccc1` (stereo not drawn): 1.22.
Compound `COc1ccc(C2NN=C3C2SC2(C(=O)Nc4ccccc42)N3c2ccc(Br)cc2)cc1` (stereo not drawn) showed a logD of 1.4.
On to `COc1ccc(C2NN=C3C2SC2(C(=O)Nc4ccccc42)N3c2ccccc2OC)cc1` (stereo not drawn), for which the logD came to 1.23.
Next, `O=C1Nc2ccccc2C12SC1C(=NNC1c1ccccc1Cl)N2c1ccccc1[N+](=O)[O-]` (stereo not drawn): 1.17; `COc1ccc(C2NN=C3C2SC2(C(=O)Nc4ccccc42)N3c2cccc3ccccc23)cc1` (stereo not drawn): 1.2; `O=C1Nc2ccccc2C12SC1C(=NNC1c1ccccc1)N2c1ccc(Br)cc1` (stereo not drawn): 1.24.
`O=C1Nc2ccccc2C12SC1C(=NNC1c1ccccc1[N+](=O)[O-])N2c1cccc2ccccc12` (stereo not drawn) returned a logD of 1.17.
Regarding `COc1ccc(C2NN=C3C2SC2(C(=O)Nc4ccccc42)N3c2ccccc2[N+](=O)[O-])cc1` (stereo not drawn), the logD is 1.35.
The figure for `O=C1Nc2ccccc2C12SC1C(=NNC1c1ccc([N+](=O)[O-])cc1)N2c1ccc(Cl)cc1` (stereo not drawn) is 1.31.
